Experimental data from PMC7101335, “Aryl-alkyl-lysines: Novel agents for treatment of C. difficile infection” (Scientific Reports, 2020).
Values after ≈ are worked out from the molar mass of the structure shown. Read-outs that look alike come from different tables or passages of the source.

Assays:
Clostridium difficile = assay: Broth microdilution MIC against Clostridium difficile strains; type: cell-based; conditions: Clostridioides difficile
Description: The broth microdilution assay was utilized following the Clinical and Laboratory Standards Institute (CLSI) guidelines with slight modifications. Briefly, C. difficile strains were grown on anaerobic blood agar plates (Becton Dickinson, BD) and suspended in brain heart infusion supplemented broth (Brain heart infusion medium, BD, supplemented with yeast extract, L-cysteine, Vitamin K1 and Hemin, Sigma) to achieve a bacterial concentration of ~10^5 CFU/ml. The bacterial suspension was seeded in 96-well plates containing drugs/compounds, in duplicate, at the required concentration. Plates were then incubated at 37 °C anaerobically for 48 hours. MICs reported are the lowest concentration of each agent that inhibited the visual growth of bacteria.

E. faecalis = assay: Broth microdilution MIC against E. faecalis strains; type: cell-based; conditions: Enterococcus faecalis, read-out: Minimum inhibitory concentration
E. faecium = assay: Broth microdilution MIC against E. faecium strains; type: cell-based; conditions: Enterococcus faecium, read-out: Minimum inhibitory concentration
[1] = system: human ileocecal colorectal adenocarcinoma cell line (HRT-18); assay: Cytotoxicity, MTS assay, HRT-18 cells; type: cell-based; conditions: 32 µg mL^−1, 2 hours
Description: Briefly, ~2 × 10^4 cells suspended in 100 µL of RPMI-1640 supplemented with 10% horse serum were seeded in a 96-well plate and incubated at 37 °C with 5% CO2. The cells were cultured for 24 hours until reaching ~90% confluency. The cells were further incubated with the aforementioned concentrations of the compounds for 2 hours. Afterwards, culture media were discarded and the cells in each well were washed with PBS and 100 µL of cell culture media were added prior to addition of the assay reagent MTS 3-(4,5-dimethylthiazol-2-yl)-5-(3-carboxymethoxyphenyl)-2-(4-sulfophenyl)-2H-tetrazolium) (Promega). The plates were incubated for 4 hours at 37 °C in a humidified 5% CO2 atmosphere. The absorbance was recorded at 490 nm and the corrected absorbance readings (actual absorbance readings for each treatment subtracted from background absorbance) were taken using a kinetic ELISA microplate reader (SpectraMax i3x, Molecular Devices, Sunnyvale, CA, USA). The quantity of viable cells after treatment with each compound was expressed as a percentage of the control, DMSO. Asterisk (*) denotes a significant difference from the DMSO-treated cells using 2-way analysis of variance (ANOVA) followed by Dunnett’s pairwise comparison.

[2] = system: vancomycin-resistant and vancomycin-susceptible strains of Enterococcus; assay: Broth microdilution MIC against Enterococcus strains (E. faecalis and E. faecium, summary in text); type: cell-based; conditions: all E. faecalis and E. faecium strains tested, vancomycin-resistant and -sensitive
[3] = Caco-2 bidirectional permeability assay; type: in vitro ADME, human; conditions: human, Caco-2
Description: The Caco-2 bidirectional permeability assay was conducted as described in previous reports[29],[30],[41],[42]. The Caco-2 cell line is similar to human enterocytes and expresses P-glycoprotein and other relevant metabolic enzymes that affect absorption of orally-administered xenobiotics across the intestinal mucosa[34],[43],[44]. Caco-2 cells were grown in tissue culture flasks, trypsinized (by rinsing cells with phosphate-buffered saline and then treating with trypsin-EDTA for 5–10 minutes at 37 °C with 5% CO2 until cells detached), suspended in Dulbecco’s Modified Eagle Medium with 10% fetal bovine serum, 1% nonessential amino acids and penicillin-streptomycin, and then seeded onto wells of a Millipore 96-well Caco-2 plate. Cells were cultured at 37 °C with 5% CO2 until confluent (approximately three weeks) and media was changed at relevant time points. For Apical to Basolateral (A → B) permeability, the test article was added to the apical (A) compartment and the amount of permeation (Papp, as calculated below) to the basolateral (B) compartment was determined; for Basolateral to Apical (B → A) permeability, the test article was added to the B compartment and the amount of permeation to the A compartment was determined. […] Caco-2 cells were incubated with these buffers for two hours, and the receiver side buffer was removed for analysis by LC/MS/MS. To verify the tight junctions and integrity of Caco-2 cell monolayers, aliquots of the cell buffers were analyzed by fluorescence (Lucifer yellow transport ≤ 2%). Any deviations from control values are reported. Data are expressed as permeability (Papp) = (dQ/dt)/(C0A) where dQ/dt is the rate of permeation, C0 is the initial concentration of test agent, and A is the area of the monolayer.

[4] = C. difficile Isolate 1 (NR-13427), read-out: Minimum inhibitory concentration
[5] = C. difficile Isolate 2 (NR-13428), read-out: Minimum inhibitory concentration
[6] = C. difficile Isolate 4 (NR-13430), read-out: Minimum inhibitory concentration
[7] = C. difficile Isolate 5 (NR-13431), read-out: Minimum inhibitory concentration
[8] = C. difficile Isolate 6 (NR-13432), read-out: Minimum inhibitory concentration
[9] = C. difficile Isolate 9 (NR-13435), read-out: Minimum inhibitory concentration
[10] = C. difficile Isolate 10 (NR-13436), read-out: Minimum inhibitory concentration
[11] = C. difficile P2 (NR-32883), read-out: Minimum inhibitory concentration
[12] = C. difficile P4 (NR-32889), read-out: Minimum inhibitory concentration
[13] = C. difficile P8 (NR-32888), read-out: Minimum inhibitory concentration
[14] = C. difficile P13 (NR-32891), read-out: Minimum inhibitory concentration
[15] = C. difficile P15 (NR-32892), read-out: Minimum inhibitory concentration
[16] = C. difficile P20 (NR-32896), read-out: Minimum inhibitory concentration
[17] = C. difficile P21 (NR-32897), read-out: Minimum inhibitory concentration
[18] = C. difficile P29 (NR-32903), read-out: Minimum inhibitory concentration
[19] = across all tested strains of C. difficile
[20] = E. faecalis SF28073 (vancomycin-resistant)
[21] = E. faecium E417 (vancomycin-resistant)

Work on `CCCCCCCCCCCCN(Cc1cccc2ccccc12)C(=O)[C@@H](N)CCCCN` [NCK-12] yielded an MIC (Clostridium difficile; [4]) of 4 µg/mL (≈ 8.82 µM), an MIC (Clostridium difficile; [5]) of 2 µg/mL (≈ 4.41 µM) and an MIC (Clostridium difficile; [6]) of 2 µg/mL (≈ 4.41 µM). It also gave an MIC (Clostridium difficile; [7]) of 1 µg/mL (≈ 2.2 µM), an MIC (Clostridium difficile; [8]) of 2 µg/mL (≈ 4.41 µM) and an MIC (Clostridium difficile; [9]) of 2 µg/mL (≈ 4.41 µM). It also gave an MIC (Clostridium difficile; [10]) of 2 µg/mL (≈ 4.41 µM), an MIC (Clostridium difficile; [11]) of 1 µg/mL (≈ 2.2 µM) and an MIC (Clostridium difficile; [12]) of 4 µg/mL (≈ 8.82 µM). It also gave an MIC (Clostridium difficile; [13]) of 4 µg/mL (≈ 8.82 µM), an MIC (Clostridium difficile; [14]) of 2 µg/mL (≈ 4.41 µM) and an MIC (Clostridium difficile; [15]) of 2 µg/mL (≈ 4.41 µM). It also gave an MIC (Clostridium difficile; [16]) of 2 µg/mL (≈ 4.41 µM), an MIC (Clostridium difficile; [17]) of 2 µg/mL (≈ 4.41 µM) and an MIC (Clostridium difficile; [18]) of 2 µg/mL (≈ 4.41 µM). For the same compound, the MIC (Clostridium difficile; [19]) was 1 to 4 µg/mL (≈ 2.2 to 8.82 µM), the MIC (E. faecalis; E. faecalis B3196) was 4 µg/mL (≈ 8.82 µM) and the MIC (E. faecalis; E. faecalis B3286) was 8 µg/mL (≈ 17.6 µM). For the same compound, the MIC (E. faecalis; E. faecalis B3336) was 8 µg/mL (≈ 17.6 µM), the MIC (E. faecalis; E. faecalis SF24397) was 8 µg/mL (≈ 17.6 µM) and the MIC (E. faecalis; [20]) was 4 µg/mL (≈ 8.82 µM). It also gave an MIC (E. faecium; [21]) of 4 µg/mL (≈ 8.82 µM), an MIC (E. faecium; E. faecium E1071) of 8 µg/mL (≈ 17.6 µM) and an MIC (E. faecium; E. faecium UAA714) of 8 µg/mL (≈ 17.6 µM). The “toxicity to HRT-18 cells” value [1] was “survived” and the MIC [2] was 4 to 8 µg/mL (≈ 8.82 to 17.6 µM).
`CNC(=C[N+](=O)[O-])NCCSCc1ccc(CN(C)C)o1` [Ranitidine] gave an efflux ratio at 2 h ([3]; Re = (Papp B→A)/(Papp A→B)) of 5.18, a Papp A→B at 2 h ([3]; apical (pH 6.5) to basolateral (pH 7.4), two hours) of 0.186 ×10⁻⁶ cm/s and a Papp B→A at 2 h ([3]; basolateral to apical, two hours) of 0.942 ×10⁻⁶ cm/s.
In the case of `CCCCCCCCN(Cc1cccc2ccccc12)C(=O)[C@@H](N)CCCCN` [NCK-8], the MIC (Clostridium difficile; [4]) is reported as 8 µg/mL (≈ 20.1 µM), the MIC (Clostridium difficile; [5]) is reported as 8 µg/mL (≈ 20.1 µM) and the MIC (Clostridium difficile; [6]) is reported as 8 µg/mL (≈ 20.1 µM). It also gave an MIC (Clostridium difficile; [7]) of 2 µg/mL (≈ 5.03 µM), an MIC (Clostridium difficile; [8]) of 8 µg/mL (≈ 20.1 µM) and an MIC (Clostridium difficile; [9]) of 4 µg/mL (≈ 10.1 µM). It also gave an MIC (Clostridium difficile; [10]) of 8 µg/mL (≈ 20.1 µM), an MIC (Clostridium difficile; [11]) of 4 µg/mL (≈ 10.1 µM) and an MIC (Clostridium difficile; [12]) of 8 µg/mL (≈ 20.1 µM). The MIC (Clostridium difficile; [13]) was 8 µg/mL (≈ 20.1 µM), the MIC (Clostridium difficile; [14]) was 8 µg/mL (≈ 20.1 µM) and the MIC (Clostridium difficile; [15]) was 8 µg/mL (≈ 20.1 µM). It also gave an MIC (Clostridium difficile; [16]) of 8 µg/mL (≈ 20.1 µM), an MIC (Clostridium difficile; [17]) of 4 µg/mL (≈ 10.1 µM) and an MIC (Clostridium difficile; [18]) of 8 µg/mL (≈ 20.1 µM). It also gave an MIC (Clostridium difficile; [19]) of 2 to 8 µg/mL (≈ 5.03 to 20.1 µM), an MIC (E. faecalis; E. faecalis B3196) of 16 µg/mL (≈ 40.2 µM) and an MIC (E. faecalis; E. faecalis B3286) of 32 µg/mL (≈ 80.5 µM). The MIC (E. faecalis; E. faecalis B3336) was 16 µg/mL (≈ 40.2 µM), the MIC (E. faecalis; E. faecalis SF24397) was 16 µg/mL (≈ 40.2 µM) and the MIC (E. faecalis; [20]) was 16 µg/mL (≈ 40.2 µM). The MIC (E. faecium; [21]) was 8 µg/mL (≈ 20.1 µM), the MIC (E. faecium; E. faecium E1071) was 16 µg/mL (≈ 40.2 µM) and the MIC (E. faecium; E. faecium UAA714) was 16 µg/mL (≈ 40.2 µM). The “toxicity to HRT-18 cells” value [1] was “survived” and the MIC [2] was 8 to 32 µg/mL (≈ 20.1 to 80.5 µM).
With `Cc1ncc([N+](=O)[O-])n1CCO` [Metronidazole, reference compound] the MIC (Clostridium difficile; [4]) was 0.25 µg/mL (≈ 1.46 µM), the MIC (Clostridium difficile; [5]) was 0.0625 µg/mL (≈ 0.365 µM) and the MIC (Clostridium difficile; [6]) was 0.5 µg/mL (≈ 2.92 µM). For the same compound, the MIC (Clostridium difficile; [7]) was 0.25 µg/mL (≈ 1.46 µM), the MIC (Clostridium difficile; [8]) was 0.125 µg/mL (≈ 0.73 µM) and the MIC (Clostridium difficile; [9]) was 0.0625 µg/mL (≈ 0.365 µM). For the same compound, the MIC (Clostridium difficile; [10]) was 0.125 µg/mL (≈ 0.73 µM), the MIC (Clostridium difficile; [11]) was 0.0625 µg/mL (≈ 0.365 µM) and the MIC (Clostridium difficile; [12]) was 0.125 µg/mL (≈ 0.73 µM). It also gave an MIC (Clostridium difficile; [13]) of 0.125 µg/mL (≈ 0.73 µM), an MIC (Clostridium difficile; [14]) of 0.25 µg/mL (≈ 1.46 µM) and an MIC (Clostridium difficile; [15]) of 0.0625 µg/mL (≈ 0.365 µM). For the same compound, the MIC (Clostridium difficile; [16]) was 0.25 µg/mL (≈ 1.46 µM), the MIC (Clostridium difficile; [17]) was 0.125 µg/mL (≈ 0.73 µM) and the MIC (Clostridium difficile; [18]) was 0.0625 µg/mL (≈ 0.365 µM). For the same compound, the MIC (Clostridium difficile; C. difficile strains P8, P13 and Isolate 10) was < 0.25 µg/mL.
